In PMC7663003 (2020) one finds Kd data, which are given here for six compounds.

Common to all, as to experiment: fluorescence titration
Assay [1] concerns 18Ras (RNA, G4) GGGAGGGGCGGGUCUGGG
The following applies: 2.5 mM Mg2+, pH 7.4, 25 °C, dye 3 μM, apparent.

In assay [2] the test system is 22AG (DNA, G4) AGGGTTAGGGTTAGGGTTAGGG
To be noted: 2.5 mM Mg2+, pH 7.4, 25 °C, dye 3 μM, apparent.

Assay [3] deals with 18Ras (RNA, G4) GGGAGGGGCGGGUCUGGG
The following applies: 140 mM K+, 10 mM Na+, 2.5 mM Mg2+; PBS140KM (phosphate) pH 7.4, 25 °C; 3 μM dye; apparent.

Assay [4] relates to 20Src (DNA, G4) GGGCGGCGGGCTGGGCGGGG
To be noted: 2.5 mM Mg2+, pH 7.4, 25 °C, dye 3 μM, oligonucleotide to 15 μM, apparent, n.d., assumed.

For assay [5], the system named is 26Tel (DNA, G4) TTAGGGTTAGGGTTAGGGTTAGGGTT
To be noted: 153 mM Na+, 2.7 mM K+, 2.5 mM Mg2+, pH 7.4, 25 °C, dye 3 μM, apparent.

The subject of assay [6] is dsDNA (DNA, duplex) GGGTTACTACGAACTGG/CCAGTTCGTAGTAACCC
To be noted: 153 mM Na+, 2.7 mM K+, 2.5 mM Mg2+, pH 7.4, 25 °C, dye 3 μM, apparent.

The test system of assay [7] is 27Myc (DNA, G4) TGGGGAGGGTGGGGAGGGTGGGGAAGG
The following applies: 153 mM Na+, 2.7 mM K+, 2.5 mM Mg2+, pH 7.4, 25 °C, dye 3 μM, apparent.

In assay [8] the test system is 20Src (DNA, G4) GGGCGGCGGGCTGGGCGGGG
To be noted: 2.5 mM Mg2+, 3 μM dye, apparent.

Assay [9] deals with 22Kit (DNA, G4) AGGGAGGGCGCTGGGAGGAGGG
To be noted: 153 mM Na+, 2.7 mM K+, 2.5 mM Mg2+, pH 7.4, 25 °C, dye 3 μM, apparent.

Assay [10] deals with 27Myc (DNA, G4) TGGGGAGGGTGGGGAGGGTGGGGAAGG
The following applies: 140 mM K+, 10 mM Na+, 2.5 mM Mg2+; PBS140KM (phosphate) pH 7.4, 25 °C; 3 μM dye; apparent.

Assay [11] concerns 26Tel (DNA, G4) TTAGGGTTAGGGTTAGGGTTAGGGTT
The following applies: 2.5 mM Mg2+, 3 μM dye, apparent.

Assay [12] concerns 22Kit (DNA, G4) AGGGAGGGCGCTGGGAGGAGGG
To be noted: 140 mM K+, 10 mM Na+, 2.5 mM Mg2+; PBS140KM (phosphate) pH 7.4, 25 °C; 3 μM dye; apparent.

Assay [13] relates to 22AG (DNA, G4) AGGGTTAGGGTTAGGGTTAGGG
The following applies: 2.5 mM Mg2+, 3 μM dye, apparent.

In assay [14] the test system is dsDNA (DNA, duplex) GGGTTACTACGAACTGG/CCAGTTCGTAGTAACCC
The following applies: 140 mM K+, 10 mM Na+, 2.5 mM Mg2+; PBS140KM (phosphate) pH 7.4, 25 °C; 3 μM dye; apparent.

The mark [15] stands for this setting: 153 mM Na+, 2.7 mM K+, PBS153NM (phosphate).
Where [16] appears, read: 140 mM K+, 10 mM Na+, PBS140KM, oligonucleotide to 15 μM, n.d., assumed.
Where [17] appears, read: 153 mM Na+, 2.7 mM K+, PBS153NM.
[18] abbreviates: PBS153NM, oligonucleotide to 15 μM, n.d., assumed.
The mark [19] stands for this setting: 140 mM K+, 10 mM Na+, PBS140KM (phosphate) pH 7.4, 25 °C.
[20] abbreviates: 153 mM Na+, 2.7 mM K+, PBS153NM, oligonucleotide to 15 μM, n.d., assumed.
Setting [21] is: 153 mM Na+, 2.7 mM K+, PBS153NM (phosphate) pH 7.4, 25 °C.

SMILES strings stand for the structures.

Take `Cc1ccc2c(c1)sc(-c1ccc(N(C)C)cc1)[n+]2CCNC(=O)COCC(=O)NCCOCCOCCOCCOCCOCCOCCOCCOCCOCCOCCOCCN`: the Kd in [1] (setting [15]) is 16.3 ± 1.8 µM; in assay [2] (setting [16]), greater than 40 µM; in [2] (setting [15]), 20.3 ± 9.9 µM; in assay [3] it was 15.3 ± 1.9 µM; in assay [4] (setting [17]) it was greater than 40 µM; in [5] (setting [18]) it was greater than 40 µM. In addition, the Kd in [6] (setting [18]) was greater than 40 µM; in assay [7] (PBS153NM (phosphate)), 29.1 ± 2.5 µM; in assay [8] (setting [19]) it was 20.2 ± 2.3 µM; in [9] (setting [18]), greater than 40 µM; in [10] it was 13.4 ± 0.8 µM; in assay [11] (setting [19]) it was 23.9 ± 3.1 µM. The Kd in [12] came to 36.6 ± 4.4 µM.
In the case of `Cc1ccc2c(c1)sc(-c1ccc(N(C)C)cc1)[n+]2CCN`, the Kd in assay [1] (setting [16]) is greater than 40 µM; in assay [1] (setting [20]) it was greater than 40 µM; in assay [2] (setting [16]) it was greater than 40 µM; in assay [2] (setting [15]) it was 23.6 ± 9.1 µM; in assay [4] (140 mM K+, 10 mM Na+, PBS140KM) it was greater than 40 µM; in [4] (setting [17]), greater than 40 µM. The Kd in assay [5] (setting [18]) is greater than 40 µM; in assay [6] (setting [18]), greater than 40 µM; in assay [7] (setting [18]) it was greater than 40 µM; in [9] (setting [18]), greater than 40 µM; in [11] (setting [19]), 9.7 ± 5.5 µM; in assay [12], 8.9 ± 3.5 µM.
In the case of `Cc1ccc2c(c1)sc(-c1ccc(N(C)C)cc1)[n+]2CCNC(=O)COCCOCCN`, the Kd is 15.5 ± 1.7 µM in [1] (setting [15]); greater than 40 µM in [2] (setting [20]); 11.8 ± 0.6 µM in assay [3]; greater than 40 µM in assay [4] (setting [17]); 34.3 ± 4.0 µM in [5] (PBS153NM (phosphate)); greater than 40 µM in assay [6] (setting [18]). The Kd in [13] (setting [19]) is 11.8 ± 1.4 µM; in assay [7] (PBS153NM (phosphate)), 10.8 ± 1.3 µM; in assay [8] (setting [19]), 38.6 ± 5.9 µM; in assay [9] (setting [18]), greater than 40 µM; in [10], 8.7 ± 0.7 µM; in assay [11] (setting [19]), 5.3 ± 0.4 µM. The Kd in [12] was 20.5 ± 1.4 µM.
As to `Cc1ccc2c(c1)sc(-c1ccc(N(C)C)cc1)[n+]2CCNC(=O)NCCCNCCCCNCCCN`, the Kd in assay [1] (setting [15]) is 14.7 ± 3.2 µM; in assay [3] it was 12.8 ± 1.9 µM; in [14], 16.0 ± 1.0 µM; in assay [6] (PBS153NM (phosphate)), 9.4 ± 1.0 µM; in assay [13] (setting [19]) it was 5.4 ± 1.0 µM; in assay [13] (setting [21]), 8.2 ± 0.8 µM. The Kd turned out to be 5.3 ± 0.8 µM in assay [7] (PBS153NM (phosphate)); 18.8 ± 2.4 µM in [8] (setting [19]); 4.1 ± 0.5 µM in assay [8] (setting [21]); 7.4 ± 3.9 µM in assay [9] (PBS153NM (phosphate)); 6.8 ± 0.9 µM in assay [10]; 2.4 ± 0.4 µM in assay [11] (setting [19]). Further, the Kd is 4.6 ± 0.3 µM in assay [11] (setting [21]) and 6.8 ± 0.6 µM in assay [12].
Turning to `Cc1ccc2c(c1)sc(-c1ccc(N(C)C)cc1)[n+]2CCO`, the Kd was 28.1 ± 4.0 µM in assay [1] (setting [15]); greater than 40 µM in assay [2] (setting [20]); 25.0 ± 3.1 µM in assay [3]; greater than 40 µM in assay [4] (140 mM K+, 10 mM Na+, PBS140KM); greater than 40 µM in [4] (setting [17]); greater than 40 µM in assay [5] (setting [18]). Also, the Kd is greater than 40 µM in assay [6] (setting [18]); 20.1 ± 1.5 µM in [13] (setting [19]); 14.1 ± 1.5 µM in assay [7] (PBS153NM (phosphate)); 12.3 ± 1.8 µM in [9] (PBS153NM (phosphate)); 19.9 ± 0.9 µM in assay [10]; 11.1 ± 1.5 µM in assay [11] (setting [19]). The Kd in [12] was 34.9 ± 6.6 µM.
For the compound `Cc1ccc2c(c1)sc(-c1ccc(N(C)C)cc1)[n+]2C`, the Kd is 15.3 ± 1.6 µM in assay [1] (setting [15]); 19.0 ± 2.9 µM in assay [3]; greater than 40 µM in assay [4] (140 mM K+, 10 mM Na+, PBS140KM); greater than 40 µM in assay [4] (setting [17]); 29.5 ± 5.6 µM in assay [5] (PBS153NM (phosphate)); greater than 40 µM in assay [6] (setting [18]). Moreover, the Kd in assay [13] (setting [19]) worked out at 5.0 ± 0.5 µM; in [7] (PBS153NM (phosphate)), 13.5 ± 5.1 µM; in assay [9] (PBS153NM (phosphate)) it was 4.8 ± 0.8 µM; in [10], 6.9 ± 0.8 µM; in assay [11] (setting [19]), 4.0 ± 0.4 µM; in assay [12] it was 9.9 ± 1.2 µM.
